Source: paper PMC7719179, “Small molecule inhibition of Dynamin-dependent endocytosis targets multiple niche signals and impairs leukemia stem cells” (Nature Communications, 2020)
Several values for one entry are separate records, joined by “and”; a condition that tells them apart may be missing. Identical values can stand only once.

How the values were obtained:
[1] = test system: pre-LSC self-renewal activity; assay: Fold expansion after transplantation of DN3a thymocytes from treated Lmo2^Tg mice; format: in vivo, mouse; settings: recipients of DN3a thymocytes from treated Lmo2^Tg mice; individual animals
Protocol: Single-cell suspension of murine thymus cells were intravenously injected into sublethally irradiated (650 Rads) isogenic Ly5.1 (Cd45.1) mice. Fold expansion was calculated by dividing the absolute output number of donor-derived DN3a cells harvested at the experimental endpoint by the respective number of DN3a thymocytes injected in each recipient. Limiting dilution transplantations were performed as described, by injecting various doses (10^1 to 10^6) of thymocytes per recipient, and mice were scored positive when T-cell lineage reconstitution assessed 6 weeks after transplantation was >1%. Leukemia-propagating cell frequency was calculated by applying Poisson statistics using the ELDA: Extreme Limiting Dilution Analysis software (Walter and Eliza Hall Institute Bioinformatics, Parkville VIC, Australia)[96]. Limiting dilution transplantations were performed independently from any other transplantation assays, using thymocytes from three different Lmo2^Tg mice for each cohort. Kaplan–Meier survival and statistical analysis were performed using GraphPad Prism. 6.0 software (GraphPad Software Inc, San Diego CA, USA).

[2] = Clonogenic assay of human CD34-positive HSPCs from healthy donors, 10 days (LC50); format: cell-based; parameters: Relative number of colonies (% DMSO): unit of the concentration uncertain; settings: human
Protocol: (§1) Cultures were incubated at 37 °C in 10% CO2 for 10 days in presence of 10 μg/mL rhIL-3 (#200-03, Pepro Tech), 25 μg/mL rhSCF (#300-07, Pepro Tech), 25 μg/mL rhFLT3-L (#300-19, Pepro Tech), rhIL-6 (#200-06, Pepro Tech), 500 nM StemRegenin 1 (SR1; #1227633-49-9, Stem Cell Technologies) and 35 nM UM-171 (#72914, Stem Cell Technologies)[93],[94], then stained with acetyl-cholinesterase and counted for the number of colonies.

[3] = test system: normal human CD34-positive HSPCs; assay: as above; format: cell-based; parameters: Relative number of colonies (% DMSO): unit of the concentration uncertain
Protocol: as §1

[4] = test system: IL-7 signalling (pStat5) in Ba/F3-IL7R cells; assay: IL-7-induced phospho-Stat5 in Ba/F3-IL7R cells (phosphoflow); format: cell-based, murine; settings: for pStat5 (MFI): replicates
Protocol: Ba/F3 cells (kindly provided by a person from The Walter and Eliza Hall Institute of Medical Research) were infected with pMIG-R1/Il7r retroviral supernatants produced in 293T cells, and transduced cells were sorted with a BD Influx (BD Australia) and selected by culture in medium supplemented with 5 ng/mL rmIL-7 (#217-17, Pepro Tech, Rocky Hill NJ, USA) for 7 days. Ba/F3 cells stably expressing Il7r (Ba/F3-IL7R) were infected with TxTCPVIR-Stat5-CA retroviral supernatants produced in 293T. Cell sorting was performed with a BD Influx and transduced cells were treated with doxycycline for 48 h to induce the expression of the Stat5-CA-T2A-mCherry fusion protein.
Phosphoflow analysis was performed as previously described. Briefly, 2 × 10^6 cells stained for surface markers were subsequently resuspended into PBS 1× + 4% v/v paraformaldehyde and incubated for 10 min at 4 °C for fixation. Fixed cells were washed twice using PBS 1×, then resuspended in pre-chilled at −20 °C Perm Buffer III (BD Pharmingen) and incubated 30 min at 4 °C for permeabilization. Cells were washed twice using PBS 1× and incubated overnight at 4 °C in PBS 1× + 2% v/v fetal calf serum (FCS) with Cell Signalling purified antibodies (Genesearch Pty Ltd, Arundel QLD, Australia) against pSTAT5 (Tyr694; #9359), phospho-p38 MAPK (Thr180/Tyr182; #4511), phospho-p44/42 (Erk1/2; #9102), phospho-S6 (Ser235/236; #4856) and phospho-Akt (Ser473; #9271) or isotype control. For intracellular HES1 detection, cells stained for surface markers were subsequently fixed and permeabilized using the BD Cytofix/Cytoperm^TM Kit and incubated overnight at 4 °C in PBS 1× + 2% v/v FCS with a purified antibody against HES1 (D6PU; #11988, Cell Signalling) or isotype control. After staining with primary antibodies for phosphoflow or intracellular detection, cells were incubated in permeabilization buffer with donkey Alexa Fluor 488-conjugated anti-rabbit secondary antibody (A-21206, lot #1910751, Molecular Probes, Invitrogen) or goat Alexa Fluor 546-conjugated anti-rabbit secondary antibody (A-11035, lot #1904467, Molecular Probes, Invitrogen) for 1 h on ice, and washed twice in PBS 1×. Fluorescence-activated cell sorting (FACS) analysis was performed using LSRII and LSR Fortessa cytometers, following the gating strategies described in Supplementary Fig. 11. Cell sorting was performed with a FACSAria or BD Influx.
For in vitro IL-7 stimulation assays, cells were starved in serum-free DMEM at 37 °C, then incubated with either vehicle or Dynole 34-2 or Ruxolitinib (INCB018424; #S1378, Selleckchem), or DAPT (GSI-IX; #S2215, Selleckchem) resuspended in DMSO for 1 h. Thymocytes were subsequently stimulated with 25 ng/mL IL-7 at 37 °C for 20 min and washed twice using cold PBS 1×. Cells were incubated with 25 ng/mL Rat IgG (Sigma-Aldrich Pty Ltd, Castle Hill NSW, Australia) and with a PE-conjugated antibody for detection of IL-7R (CD127) for 1 h on ice, as described in the FACS analysis section. PE-conjugated isotype was used as negative control. Cells were washed twice, fixed and phosphoflow analysis performed as described in the FACS analysis section. The analysis was performed in triplicate and the mean fluorescence intensity (MFI) observed without stimulation was reported as 100%.

SMILES: CCCCCCCCNC(=O)C(C#N)=Cc1cn(CCCN(C)C)c2ccccc12 [Dynole 34-2, 2-Cyano-N-octyl-3-(1-(3-dimethylaminopropyl)-1H-indol-3-yl)-acrylamide]
- Fold expansion DN3a cells [1]: 3.5 fold and 2.36 fold and 9.11 fold and 4.77 fold and 13.12 fold and 6.34 fold and 25.03 fold and 63.73 fold and 32.46 fold
- CC50 at 10 days ([2]; normal human CD34-positive HSPCs, clonogenic assay 10 days, Mean ± SEM): 23 ± 5.72 µM
- CC50 at 10 days ([2]; sample 06-02-2018 CD34): 8.8 µM
- CC50 at 10 days ([2]; sample 10-03-2018 CD34): 9.85 µM
- CC50 at 10 days ([2]; sample 18/03/2016 CD34): 7.09 µM
- CC50 at 10 days ([2]; sample 21-04-2018 CD34): 7.34 µM
- CC50 at 10 days ([2]; sample 22/05/2018 CD34): 17.2 µM
- CC50 at 10 days ([2]; sample 24/06/2016 CD34): 11.3 µM
- Relative number of colonies (% DMSO) ([3]; CD34_1003, dose 0.04 (unit uncertain)): 99.5 % DMSO and 94.6 % DMSO
- Relative number of colonies (% DMSO) ([3]; CD34_1003, dose 0.2 (unit uncertain)): 88.8 % DMSO and 76.1 % DMSO
- Relative number of colonies (% DMSO) ([3]; CD34_1003, dose 1 (unit uncertain)): 82.9 % DMSO and 71.2 % DMSO
- Relative number of colonies (% DMSO) ([3]; CD34_1003, dose 5 (unit uncertain)): 48.8 % DMSO and 56.6 % DMSO
- Relative number of colonies (% DMSO) ([3]; CD34_1003, dose 25 (unit uncertain)): 0.0 % DMSO
- Relative number of colonies (% DMSO) ([3]; CD34_1602, dose 0.04 (unit uncertain)): 116.1 % DMSO and 109.5 % DMSO
- Relative number of colonies (% DMSO) ([3]; CD34_1602, dose 0.2 (unit uncertain)): 118.9 % DMSO and 100.0 % DMSO
- Relative number of colonies (% DMSO) ([3]; CD34_1602, dose 1 (unit uncertain)): 106.3 % DMSO and 87.8 % DMSO
- Relative number of colonies (% DMSO) ([3]; CD34_1602, dose 5 (unit uncertain)): 89.5 % DMSO and 73.0 % DMSO
- Relative number of colonies (% DMSO) ([3]; CD34_1602, dose 25 (unit uncertain)): 0.0 % DMSO
- Relative number of colonies (% DMSO) ([3]; CD34_2104, dose 0.04 (unit uncertain)): 102.6 % DMSO
- Relative number of colonies (% DMSO) ([3]; CD34_2104, dose 0.2 (unit uncertain)): 104.6 % DMSO and 97.4 % DMSO
- Relative number of colonies (% DMSO) ([3]; CD34_2104, dose 1 (unit uncertain)): 68.7 % DMSO and 76.9 % DMSO
- Relative number of colonies (% DMSO) ([3]; CD34_2104, dose 25 (unit uncertain)): 0.0 % DMSO
- pStat5 (MFI) ([4]; Ba/F3-IL7R cells, +IL-7, Dynole 34-2 0.2): 2033 MFI and 1947 MFI and 1891 MFI
- pStat5 (MFI) ([4]; Ba/F3-IL7R cells, +IL-7, Dynole 34-2 1.0): 1526 MFI and 1732 MFI and 1712 MFI
- pStat5 (MFI) ([4]; Ba/F3-IL7R cells, +IL-7, Dynole 34-2 5.0): 1296 MFI and 1207 MFI and 1690 MFI
- pStat5 (MFI) ([4]; Ba/F3-IL7R cells, +IL-7, Dynole 34-2 10.0): 1304 MFI and 1113 MFI and 1201 MFI
- pStat5 (MFI) ([4]; Ba/F3-IL7R cells, +IL-7, Dynole 34-2 25.0): 1259 MFI and 1141 MFI and 1161 MFI
- inhibition of IL-7 signalling as measured by loss of phospho-Stat5 ([4]; Ba/F3-IL7R cells, result in words): dose-dependent inhibition
- IC50 ([4]; Mus musculus, Ba/F3-IL7R cells + IL-7, flow cytometry, read-out: IC50, inhibition of IL-7 signalling (pStat5)): 4.29 ± 0.77 µM
